Assay results taken from patent US20030139331A1, “Treatment of cancer by reduction of intracellular energy and pyrimidines” (priority 2000, published 2003).
Entries after “also recorded” stand apart in the source; their conditions may differ.

Experiments:
[1] = test system: 1st passage tumor transplants of CD8F1 spontaneous breast tumors; assay: Effect of MMPR + 6-AN + PALA on tumor ATP pools in CD8F1 mice; assay type: in vivo; design: tumor ATP levels 48 hours after treatment, % of normal (saline-treated control tumors) / 6 HR % Saline Control / 24 HR % Saline Control / 48 HR % Saline Control / 72HR % Saline Control / 6 HW % Saline Control: concentration or dose not given beside the values; details: for tumor ATP levels 48 hours after treatment, % of normal (saline-treated control tumors): 48 hours after administration; for tumor ATP level, % of normal: murine breast tumors in vivo, time not stated in the sentence; for 6 HW % Saline Control: 6 hr; for 6 HR % Saline Control: tumor ATP 6 hr after i.p. injection
tumor ATP levels = details: cited from earlier work
[2] = test system: first passage CD8F1 advanced spontaneous breast tumors; assay: in vivo; details: for Regressions/Survivors: partial tumor regressions; for effect on tumor growth / anticancer activity (in words): advanced CD8F1 breast tumors in mice; for partial tumor regression (P.R.) rate: three pooled published experiments, MMPR, 6-AN, PALA alone and combined, P.R. = 50% or more tumor shrinkage, three courses, 1-week interval
Excerpt: (§1) Table 1 evaluates Saline-treated controls (Group 1), 6-AN (Group 2) and DDP (Group 3) as single agents, and in combination (Group 4), against 1st generation subcutaneous solid tumor transplants of advanced CD8F, spontaneous breast tumors. In the same experiment (i.e., same tumor transplants), is a group adding 6-AN to PALA and MMPR (MAP, Group 5), as well as a group with MAP administered prior to DDP (Group 6).
(§2) Each experiment is from a different brei (i.e., each from a different group of 3-4 spontaneous tumors) and, therefore, each transplant group contained a different number of chemotherapeutically sensitive and/or resistant tumor cells.

[3] = test system: patients with disseminated cancer; details: cited from earlier work
[4] = test system: murine breast cancers, colon tumors and leukemia, and human breast cancer xenografts; assay: MAP plus anticancer agents in advanced tumor-bearing mice with a variety of tumor types; assay type: in vivo; details: MAP co-administered with the named anticancer agent
Protocol: Summary of Preclinical Therapeutic Results with MAP+Cancer Chemotherapy—MAP+each of nine mechanistically-different apoptosis-inducing anticancer agents was administered to advanced tumor-bearing mice with a variety of tumor types (murine breast cancers, colon tumors and leukemia, and human breast cancer xenografts).

[5] = test system: spontaneous, autochthonous CD8F1 breast tumors; assay: Therapy of mice bearing spontaneous, autochthonous CD8F1 breast tumors; assay type: in vivo
Excerpt: Anticancer Effect of MAP Alone in Spontaneous Murine Breast Tumors (Ref. 39)—Table 3 records that MAP produced a partial tumor regression rate of 38% in mice bearing large spontaneous, autochthonous breast tumors. There were 24 partial tumor regressions in 64 surviving mice with acceptable toxicity (4% mortality, 3 deaths in 67 treated mice). Spontaneous regression of these spontaneous breast cancers has never been observed.

in vivo = details: CD8F1, mouse, in vivo
Excerpt: as §1, §2

mouse lymphoma cells = details: in vitro; cited from earlier work
[6] = test system: human soft tissue sarcoma cell lines; assay: Sensitivity of human soft tissue sarcoma cell lines to L-alanosine by MTAP status; assay type: cell-based; details: cells lacking MTAP activity
Excerpt: An examination of MTAP expression in ten human soft tissue sarcoma cell lines found MTAP not detectable in three of the ten cell lines. These three cell lines were greater than 10-fold more sensitive to L-alanosine than the cell lines containing MTAP. […] In vivo studies of L-alanosine+MMPR, as well as the addition of 6-AN, are being evaluated (82).
An examination of MTAP expression in ten human soft tissue sarcoma cell lines found MTAP not detectable in four of the ten cell lines. These four cell lines were sensitive to L-alanosine.

[7] = test system: MDA-MB 468 human breast cancer xenografts; assay: Taxotere with MAP or MAPAL in MDA-MB-468 human breast cancer xenografts; assay type: in vivo; details: pyruvate for 1 day on the 5th day after each ATP-depleting treatment
[8] = test system: MDA-MB 468 human breast cancer xenografts; assay: as above; assay type: in vivo; details: for PR (partial tumor regression): CR included in PR rate; for (CR) complete tumor regression: included in PR rate; for % Partial Regressions: tumors averaged 100 mg at initiation, label subscript = mg/kg
Excerpt: Table 2 presents results one month after completing a q 2 week×3 schedule with Taxotere (TXT40 or TXT20; subscript=mg/kg), initiated in mice (10/grp) with subcutaneous advanced (100+mg) MDA-MB 468 breast cancer xenografts, are as follows: […]

[9] = seventh series copy of Table 1, 24 hr
[10] = seventh series copy of Table 1, 48 hr
[11] = seventh series copy of Table 1, 72 hr
[12] = tumor ATP 24 hr after i.p. injection, % of saline control
[13] = tumor ATP 48 hr after i.p. injection, % of saline control
[14] = tumor ATP 72 hr after i.p. injection, % of saline control
[15] = Exp.3069F, tumors averaged 80 mg at start, three i.p. courses at 10-11 day intervals, after third course
[16] = 69 days after initiating therapy, listed as TXT20
[17] = 69 days after initiating therapy, listed as Taxotere40

NC(=O)c1ccc(N)nc1 [6-AN, 6-aminonicotinamide]
tumor ATP levels 48 hours after treatment, % of normal (saline-treated control tumors) [1]: 69% | tumor ATP level, % of normal [1]: 75% | tumor ATP level, % of normal ([1]; listed as 6-Aminonicotinamide): 69% | 6 HW % Saline Control ([1]; seventh series copy of Table 1): 77% | 24 HR % Saline Control [1, 9]: 75% | 48 HR % Saline Control [1, 10]: 69% | 72HR % Saline Control [1, 11]: 169% | 6 HR % Saline Control ([1]; % of saline control): 77% | 24 HR % Saline Control [1, 12]: 75% | 48 HR % Saline Control [1, 13]: 69% | 72HR % Saline Control [1, 14]: 169% | toxicity of in vivo schedules (tumor ATP levels; 6-AN 10 mg/kg q 3 hours x 3 on days 1,3,5 or continuous infusion): too toxic | tumor ATP levels, % of normal (tumor ATP levels; single dose of 6-AN alone at 10 mg/kg, different tumor model): 75-80% | % Weight Change ([2]; Exp.3069F, after third course): +6% | Dead/Total ([2]; Exp.3069F, after third course): 3/10 | Regressions/Survivors ([2]; Exp.3069F, after third course): 0/7 | Av. Tumor W't (mg) [2, 15]: 1,765 mg | effect on tumor growth / anticancer activity (in words) [2]: tumor growth was inhibited | partial tumor regression (P.R.) rate [2]: no partial regressions | dose of 6-AN determined to be safe in early clinical trials ([3]; for up to 28 consecutive days of treatment): 0.2 mg/kg/day | clinical forms of 6-AN toxicity ([3]; three Phase I trials, daily administration): at low dose a mixed B complex vitamin deficiency, and at high dose CNS toxicity; also recorded: a low dose mixed B complex vitamin deficiency, and a high dose-dependent CNS toxicity

N.N.[Cl][Pt][Cl] [DDP, cisplatin]
enhancement of anticancer agent activity by co-administered MAP (in words) [4]: significantly enhance response rates | % Weight Change ([2]; Exp.3069F, after third course): −18% | Dead/Total ([2]; Exp.3069F, after third course): 1/10 | Regressions/Survivors ([2]; Exp.3069F, after third course): 0/9 | Av. Tumor W't [2, 15]: 850 mg | effect on tumor growth / anticancer activity (in words) [2]: limited to inhibition of tumor growth | effect on tumor growth / anticancer activity (in words) ([2]; listed as cisplatin): significantly inhibited tumor growth | Regressions/Survivors (%) ([2]; pooled five experiments, MAP ± DDP, one week after third course): produced no partial (i.e., greater than 50% shrinkage of tumors), or complete response | MTD (maximum tolerated dose) of the agent alone ([2]; single agent, 10-11 day schedule, tumor-bearing CD8F1 mice): 7 mg/kg

O=c1[nH]cc(F)c(=O)[nH]1 [FUra, 5-fluorouracil]
enhancement of anticancer agent activity by co-administered MAP (in words) [4]: significantly enhance response rates | regressions of spontaneous autochthonous breast tumors, FUra alone at 75 mg/kg ([5]; 75 mg/kg): less than 5% | PR rate, FUra alone at its MTD of 100 mg/kg ([5]; 100 mg/kg): ≤ 20% | MTD (in vivo): 100 mg/kg

N[C@@H](CN(O)N=O)C(=O)O [L-alanosine]
cell growth, % of control (mouse lymphoma cells): 59% | intracellular tumor cell ATP pool, % of normal (control) (mouse lymphoma cells): 63%

CSc1ncnc2c1ncn2[C@@H]1O[C@H](CO)[C@@H](O)[C@H]1O [MMPR, 6-methylmercaptopurine riboside]
cell growth, % of control (mouse lymphoma cells): 25% | intracellular tumor cell ATP pool, % of normal (control) (mouse lymphoma cells): 49% | tumor ATP levels 48 hours after treatment, % of normal (saline-treated control tumors) [1]: 34% | tumor ATP level, % of normal [1]: 34% | 6 HW % Saline Control ([1]; seventh series copy of Table 1): 47% | 24 HR % Saline Control [1, 9]: 47% | 48 HR % Saline Control [1, 10]: 34% | 72HR % Saline Control [1, 11]: 127% | 6 HR % Saline Control ([1]; % of saline control): 47% | 24 HR % Saline Control [1, 12]: 47% | 48 HR % Saline Control [1, 13]: 34% | 72HR % Saline Control [1, 14]: 127% | effect on tumor growth / anticancer activity (in words) [2]: tumor growth was inhibited | partial tumor regression (P.R.) rate [2]: no partial regressions | effect of adding MMPR to L-alanosine (in words) [6]: further enhanced the sensitivity of the cells lacking MTAP activity to L-alanosine

O=C(O)C[C@H](NC(=O)CP(=O)(O)O)C(=O)O [PALA, N-(phosphonacetyl)-L-aspartic acid]
effect on tumor ATP levels (in words) ([1]; low dose PALA): had no effect on ATP levels; also recorded: does not effect ATP depletion; also recorded: devoid of an ATP depleting effect; also recorded: does not affect ATP depletion; also recorded: neither reduces tumor ATP levels nor inhibits tumor growth | effect on tumor growth / anticancer activity (in words) [2]: not antitumor active; also recorded: does not have anticancer activity

N[C@@H](Cc1ccc(N(CCCl)CCCl)cc1)C(=O)O [PAM, phenylalanine mustard]
enhancement of anticancer agent activity by co-administered MAP (in words) [4]: significantly enhance response rates | Partial Regressions (%) ([2]; Table 6, MAP ± PAM): did not produce tumor regressions

CC(=O)C(=O)O [Pyruvate, pyruvate]
effect of pyruvate administration on treatment-induced weight loss / mortality [7]: diminishes the degree of weight loss | effect of pyruvate administration on treatment-induced weight loss / mortality ([7]; listed as pyruvate): Unacceptable mortality (e.g., 30%) is prevented

CC(=O)O[C@H]1C(=O)[C@@]2(C)[C@H]([C@H](OC(=O)c3ccccc3)[C@]3(O)C[C@H](OC(=O)[C@H](O)[C@@H](NC(=O)c4ccccc4)c4ccccc4)C(C)=C1C3(C)C)[C@]1(OC(C)=O)CO[C@@H]1C[C@@H]2O [Taxol, paclitaxel]
enhancement of anticancer agent activity by co-administered MAP (in words) [4]: significantly enhance response rates | PR/survivors (%) ([2]; Table 5, MAP ± taxol): no tumor regressions | effect on tumor growth / anticancer activity (in words) [2]: statistically significant inhibition of tumor growth | MTD (in vivo): 80 mg/kg

CC(=O)O[C@@]12CO[C@@H]1C[C@H](O)[C@@]1(C)C(=O)[C@H](O)C3=C(C)[C@@H](OC(=O)[C@H](O)[C@@H](NC(=O)OC(C)(C)C)c4ccccc4)C[C@@](O)([C@@H](OC(=O)c4ccccc4)[C@H]21)C3(C)C [Taxotere, taxotere]
PR (partial tumor regression) [8, 16]: 0% | PR (partial tumor regression) [8, 17]: 60% | Mortality ([8]; 69 days after initiating therapy, every 2 weeks x 3, 10-11 mice per group): 0% | (CR) complete tumor regression [8, 16]: (0%) | (CR) complete tumor regression [8, 17]: (10%) | NR (no tumor regression) [8, 16]: 100% | NR (no tumor regression) [8, 17]: 40% | tumor regressions with the single agent ([8]; MDA-MB-468 tumor model described as very sensitive): 90-100% | tumor regrowth beginning, days after the third and last injection ([8]; full (MTD) dose Taxotere, Group 1): 41 days | % Tumors Progressing ([8]; treatment q 2 weeks x 3, progressing tumors larger than P.R. tumors and growing): 0% | % Partial Regressions ([8]; treatment q 2 weeks x 3): 100% | % Partial Regressions ([8]; treatment q 2 weeks x 3, listed as Taxotere40): 100% | enhancement of anticancer agent activity by co-administered MAP (in words) [4]: significantly enhance response rates

O=P1(N(CCCl)CCCl)NCCCO1 (stereo not drawn) [cyclophosphamide]
enhancement of anticancer agent activity by co-administered MAP (in words) [4]: significantly enhance response rates

COc1cccc2c1C(=O)c1c(O)c3c(c(O)c1C2=O)C[C@@](O)(C(=O)CO)C[C@@H]3O[C@H]1C[C@H](N)[C@H](O)[C@H](C)O1 [doxorubicin]
enhancement of anticancer agent activity by co-administered MAP (in words) [4]: significantly enhance response rates

COc1cc([C@@H]2c3cc4c(cc3[C@@H](O[C@@H]3O[C@@H]5CO[C@@H](C)O[C@H]5[C@H](O)[C@H]3O)[C@H]3COC(=O)[C@H]23)OCO4)cc(OC)c1O [etoposide]
enhancement of anticancer agent activity by co-administered MAP (in words) [4]: significantly enhance response rates

CO[C@@]12[C@H](COC(N)=O)C3=C(C(=O)C(C)=C(N)C3=O)N1C[C@@H]1N[C@@H]12 [mitomycin C]
enhancement of anticancer agent activity by co-administered MAP (in words) [4]: significantly enhance response rates
